The values below come from paper PMC11547375, “Peptide Dimerization as a Strategy for the Development of Antileishmanial Compounds” (Molecules, 2024).

Where two headings read alike, the source gives them in different places. No end group written: not given here.

Data set [1] concerns L. amazonensis promastigotes. The conditions noted are these: read-out: IC50 Promastigote with active fetal bovine serum, LIT medium with active (not heat-inactivated) fetal bovine serum, ± standard deviation, SD. The method, then: Therefore, stability studies were carried out with these molecules in the presence of the Leishmania parasite in its promastigote form, with active fetal bovine serum added to the culture medium. […] Assays were performed using the TSHa and (TSHa)2K peptides.
Peptide stability was investigated using anti-promastigote assays (as described by Costa et al. 2023 [58]) with L. amazonensis and LIT culture media with fetal bovine serum.

The target in the next data set is LmCPB2.8ΔCTE (CPB) (Leishmania mexicana, UniProt P36400). The data set is described as follows: Cysteine protease (CPB) enzyme inhibition assay. It is filed as biochemical. As for the experimental part: The CPB inhibition experiments were performed as described previously by Moreira et al.. The results are expressed as mean ± standard deviation of two independent replicates as the half maximal CPB enzyme inhibitory concentration (IC50-CPB) using Bioestat 5.0 software.
LmCPB2.8ΔCTE (CPB), sequence (P36400 126-343, stated change not applied): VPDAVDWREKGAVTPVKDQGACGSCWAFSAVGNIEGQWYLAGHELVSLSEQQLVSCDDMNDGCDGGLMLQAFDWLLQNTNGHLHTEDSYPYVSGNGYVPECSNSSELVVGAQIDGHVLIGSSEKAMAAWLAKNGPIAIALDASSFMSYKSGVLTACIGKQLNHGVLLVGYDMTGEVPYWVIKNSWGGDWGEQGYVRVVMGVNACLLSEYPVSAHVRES

The next data set concerns L. mexicana amastigotes. The data set is described as follows: microbe, parasite or virus in culture. The format is cell-based, Leishmania mexicana. The conditions noted are these: ± standard deviation, SD. The method, then: (§1) Macrophages were sourced from the peritoneal cavity of Swiss mice using the methodology outlined by de Almeida et al.. Anti-promastigote and anti-amastigote assays of L. mexicana and L. amazonensis and their cytotoxic activity were conducted as previously described. […] Cytotoxicity for the host cells and the protozoan species was compared and expressed as the selectivity index (SI), calculated as the ratio of the CC50 for macrophages to the IC50 for the protozoan species.

The subject of data set [2] is L. mexicana promastigotes. The data set is described as follows: microbe, parasite or virus in culture. It is filed as cell-based, Leishmania mexicana. Particulars: ± standard deviation, SD, read-out: IC50 Promastigote. The method, then:
(§2) The L. amazonensis promastigotes (MPRO/BR/1972/M1841-LV-79) were grown in LIT culture medium, while the L. mexicana promastigotes (MNYC/BZ/62/M379) were cultivated in Schneider’s medium (Sigma-Aldrich, St. Louis, MO, USA), supplemented with 10% heat-inactivated fetal bovine serum (FBS; Gibco/Invitrogen, Waltham, MA, USA) at 28 °C until reaching the mid-log phase of growth. Macrophages were sourced from the peritoneal cavity of Swiss mice using the methodology outlined by de Almeida et al.. Anti-promastigote and anti-amastigote assays of L. mexicana and L. amazonensis and their cytotoxic activity were conducted as previously described. IC50 is the concentration capable of killing 50% of the parasites. The drug concentration that inhibited 50% of cell growth was denoted as the 50% cytotoxic concentration (CC50). Cytotoxicity for the host cells and the protozoan species was compared and expressed as the selectivity index (SI), calculated as the ratio of the CC50 for macrophages to the IC50 for the protozoan species.

In another data set the test system is peritoneal macrophages. The data set is described as follows: Cytotoxicity in peritoneal macrophages. It is filed as cell-based. Particulars: peritoneal macrophages of Swiss mice. As for the experimental part:
as §2

The conditions of data set [3]: POPC–POPS–Erg (16:3:1) LUVs. The method, then:
To evaluate the effect of monomeric and dimeric peptides on the lipid membrane and relate it to the mechanism of action, vesicle permeabilization studies were carried out for evaluating the possible mechanisms on membrane. The leakage assays were carried out with carboxyfluorescein (CF) internalized in the mimetic membranes. The vesicles of POPC–Chol (4:1) and POPC–POPS (phosphatidylserine)–ergosterol (16:3:1) were employed. These mimetic membranes were designed considering the compositions of phospholipids and steroids in the host membrane and in the Leishmania membrane, respectively. The constitution of the cell membrane of Leishmania varies according to the morphology of the parasite and its stage of development, but is more negative than the cell membranes of mammals, which allow for cationic AMPs to bind more easily. Our studies were based on the membrane of the promastigote form, which is characterized by the presence of mainly phosphatidylcholine, phosphatidylethanolamine, phosphatidylinositol, phosphatidylserine, and ergosterol, in addition to diglycerides and glycolipids containing mannose and galactose. In the amastigote form of Leishmania, there is a higher concentration of fatty acids and cholesterol, while triglycerides and ergosterol decrease during the transition from promastigotes to amastigotes. In addition, the main phospholipids found are sphingomyelin and phosphatidylserine, with lower proportions of phosphatidylinositol and lysophosphatidylethanolamine.
Large unilamellar vesicles (LUVs) composed of POPC (1-palmitoyl-2-oleoyl-sn-glycero-3-phosphatidylcholine) and cholesterol (Chol) (4:1), or POPC, POPS (1-palmitoyl-2-oleoyl-sn-glycero-3-serine), and ergosterol (Erg) (16:3:1) were prepared according to the methods described by Lorenzón et al.. […] We employed a Hitachi U-2000 spectrophotometer (TSHa) (Hitachi, Tokyo, Japan) or a Fluorolog-3 FL3-122 spectrofluorometer (Horiba Jobin Yvon, Glasgow, UK) ((TSHa)2K) for analyses.

In data set [4] the test system is L. amazonensis promastigotes. The data set is described as follows: microbe, parasite or virus in culture. The format is cell-based, Leishmania amazonensis. The conditions noted are these: read-out: IC50 Promastigote. As for the experimental part: as §2
Data set [5] relates to L. amazonensis amastigotes. The data set is described as follows: microbe, parasite or virus in culture. The format is cell-based, Leishmania amazonensis. Particulars: read-out: IC50 Amastigote. As for the experimental part: as §1

The term IC50 denotes the concentration that inhibits the measured activity by half. FLSGIVGMLGKLF-NH2 [TSHa]: the concentration for half-maximal inhibition (IC50) in data set [1] was 20 ± 2.15 µM; at LmCPB2.8ΔCTE (CPB) (mean ± SD of two independent replicates, SD), 9.2 ± 2.2 µM; in the data set with L. mexicana amastigotes (24 h of treatment, read-out: IC50 Amastigote 24 h of Treatment), 5 ± 0.05 µM; in the data set on L. mexicana amastigotes (48 h of treatment, read-out: IC50 Amastigote 48 h of Treatment), 8.1 ± 0.45 µM; in data set [2], 6.3 ± 0.85 µM; in data set [4], 8 ± 0.1 µM. Also, the half-maximal inhibitory concentration (IC50) in data set [5] worked out at 6.8 ± 2.82 µM. The “Inhibitory Activity at 20 μmol L^−1” value at LmCPB2.8ΔCTE (CPB) (20 μmol L^−1, mean ± SD of two independent replicates, SD) turned out to be 94.22 ± 1.54 %. In addition, the inhibition at 20 µM at LmCPB2.8ΔCTE (CPB) (20 μmol L^−1, mean ± SD of two independent replicates, read-out: Inhibitory Activity at 20 μmol L^−1) is greater than 90%. Moreover, the “CC50 Peritoneal Macrophages” value with peritoneal macrophages (Table 1, ± standard deviation, SD) was greater than 1000 ± 0.01 µmol/L. The “CC50 Peritoneal Macrophage” value with peritoneal macrophages (Table 2) is greater than 1000 ± 1.8 µmol/L. For the same substance, the CF release entry in data set [3] (peptide 1 µmol L^−1, fluorescence) is recorded as “around 70%”; in data set [3] (peptide 5 µmol L^−1, fluorescence), roughly 85%.
